In paper PMC6271531 (2014):

Key:
[1] = system: d(CGCGAATTCGCG)2, Dickerson DNA duplex (ds) (DNA, duplex) CGCGAATTCGCG; assay: ESI-MS, negative mode; conditions: NH4+ (100 mM ammonium acetate); pH 6.7; equimolar; reference ligand, value not shown
[2] = system: single stranded oligonucleotide d(CGCGAATTCGCG) (ss) (DNA, single strand) CGCGAATTCGCG; assay: ESI-IM-MS, negative mode; conditions: NH4+ (100 mM ammonium acetate); 20% methanol, pH 6.7; 1:10 molar ratio (170 µM compound); very low abundance, none at 1:1

Row | SMILES | binding [1] | binding [2]
1 | N=C(N)c1ccc(N=NNc2ccc(C(=N)N)cc2)cc1 | yes | –
2 | NCCNC(=O)CCN(CCC(=O)NCCN)CCC(=O)NCCN | – | weak
3 | O=C(CCN(CCC(=O)NCCNC(=S)Nc1ccccc1)CCC(=O)NCCNC(=S)Nc1ccccc1)NCCNC(=S)Nc1ccccc1 | – | weak
